In US10098878B2, “HIF-2α inhibitors for treating iron overload disorders” (The Board of Regents of the University of Texas System, priority 2014, dated 2018):
Like-named read-outs stand apart in the source and are kept apart here.

Columns and labels:
[1] = target: T1, HIF-2α HIS TAG-PASB Domain (Homo sapiens, UniProt Q99814); assay: HIF-2α Scintillation Proximity Assay (SPA); assay type: binding; settings: 100 nM HIF-2α HIS TAG-PASB Domain
T1 construct: 100 nM HIF-2α HIS TAG-PASB Domain
Outline: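 IC50 values rest on percent inhibition, where the sample signal is scaled between high and low controls. Wells contain about 100 μL: compound dispensed as 2 μL of DMSO solution, 88 μL protein-probe mix and 10 μL of beads.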

786-0 cells = assay: VEGF ELISA Assay; assay type: cell-based; settings: Homo sapiens, VEGFA concentration in cell culture medium, read-out: VEGF ELISA EC50
Method: Each concentration had duplicated wells. About 20 hours later, medium was removed by suction and each well was supplied with 180 μL of growth medium. About 20 μl freshly-made 10× compound stocks were added to each well. […] The EC50 was calculated by GraphPad Prism using the dose-response-inhibition (four parameter) equation. The cell seeded plate was then subjected to CellTiter-Glo luminescence cell viability assay (Promega) by adding 50 μL of Celltiter Glo reagent into each well and shaking the plate for 8 minutes at 550 rpm (Thermomixer R, Eppendorf) then read luminescence signal in plate reader (3 second delay, 0.5 second/well integration time, Synergy 2 multi Detection Microplate reader) immediately.

786-O-Hif-Luc cells = assay: Luciferase Assay; assay type: cell-based; settings: 786-O-Hif-Luc cells, about 24 hours, read-out: Luciferase EC50
Method: A pool of infected cells were then selected against 2 μg/mL of puromycin (P8833, Sigma) for 10 days followed by limited dilution to select single clones.
Each concentration was tested in triplicate. After about 24 hours, luciferase activity was determined using ONE-Glo Luciferase Assay Reagent (E6110, Promega) following the manufacturer's recommended procedure. EC50 were calculated by using Dotmatics software.

[2] = 150 nM Compound 211 probe, read-out: SPA IC50

T1 sequence (Q99814 240-350 limits assumed): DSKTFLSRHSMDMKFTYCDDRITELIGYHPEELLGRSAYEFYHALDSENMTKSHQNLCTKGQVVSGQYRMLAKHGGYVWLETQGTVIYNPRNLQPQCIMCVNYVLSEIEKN

IC50 [1, 2] [nM] | EC50 (786-0 cells; 786-0, 786-0 cells) [nM] | EC50 (786-O-Hif-Luc cells; 24 h) [nM] | SMILES | EC50 (786-0 cells; 786-0 cells) [nM] | EC50 (786-O-Hif-Luc cells) [nM] | IC50 ([1]; SPA IC50, 150 nM Compound 211 probe) [nM]
116 | 327 | 96 | N#Cc1cncc(Oc2ccc3c(c2Br)[C@@H](O)C(F)(F)S3(=O)=O)c1 [Compound 188, (R)-5-((4-Bromo-2,2-difluoro-3-hydroxy-1,1-dioxido-2,3-dihydrobenzo[b]thiophen-5-yl)oxy)nicotinonitrile] |  |  | 
11 | 77 | 47 | N#Cc1cc(F)cc(Oc2ccc3c(c2Cl)[C@@H](O)C(F)(F)S3(=O)=O)c1 [Compound 195, (R)-3-((4-chloro-2,2-difluoro-3-hydroxy-1,1-dioxido-2,3-dihydrobenzo[b]thiophen-5-yl)oxy)-5-fluorobenzonitrile] |  |  | 
41 | 18 | 22 | CC1(O)c2c(ccc(Oc3cc(F)cc(F)c3)c2C#N)S(=O)(=O)C1(F)F (stereo not drawn) [Compound 210, 5-(3,5-Difluorophenoxy)-2,2-difluoro-3-hydroxy-3-methyl-2,3-dihydrobenzo[b]thiophene-4-carbonitrile 1,1-dioxide] |  |  | 

The next lines start with the molecule.

SMILES | IC50 [1, 2] [nM] | EC50 (786-0 cells; 786-0, 786-0 cells) [nM] | EC50 (786-O-Hif-Luc cells; 24 h) [nM] | EC50 (786-0 cells; 786-0 cells) [nM] | EC50 (786-O-Hif-Luc cells) [nM] | IC50 ([1]; SPA IC50, 150 nM Compound 211 probe) [nM]
N#Cc1cc(F)cc(Oc2ccc3c(c2C(F)F)[C@@H](N)C(F)(F)S3(=O)=O)c1 [Compound 151, (R)-3-((3-Amino-4-(difluoromethyl)-2,2-difluoro-1,1-dioxido-2,3-dihydrobenzo[b]thiophen-5-yl)oxy)-5-fluorobenzonitrile] | 69 |  |  | 680 | 139 | 
O=S1(=O)c2ccc(Oc3cc(F)cc(Cl)c3)c(Br)c2[C@@H](O)C1(F)F [Compound 167, (3R)-4-Bromo-5-(3-chloro-5-fluoro-phenoxy)-2,2-difluoro-1,1-dioxo-3H-benzothiophen-3-ol] |  |  |  | 45 | 37 | < 5
O=S1(=O)c2ccc(Oc3cncc(Cl)c3)c(Br)c2[C@@H](O)C1(F)F [Compound 185, (R)-4-bromo-5-((5-chloropyridin-3-yl)oxy)-2,2-difluoro-3-hydroxy-2,3-dihydrobenzo[b]thiophene 1,1-dioxide] | 124 | 178 | 98 |  |  | 
